In patent US4248865A, “Novel aminoglycoside derivatives” (Shionogi & Co., Ltd., priority 1978, dated 1981) one finds MIC data, which are given here for three molecules.

≈ marks a conversion by molar mass, not a printed value.

Holding throughout (type): cell-based
For assay [1], the system named is Pseudomonas aeruginosa TB-151. Briefly: MIC by agar dilution method, Pseudomonas aeruginosa TB-151. To be noted: TB151, P. aeruginosa TB-151, tobramycin resistant strain, 10^6 CFU/ml, 37° C., 18 to 20 hours, read-out: Minimum Inhibitory Concentration (MIC). In general terms: In agar dilution, organisms are placed on agar that contains the substance at set levels.
Assay [2] relates to Proteus mirabilis TB-617. Briefly: MIC by agar dilution method, Proteus mirabilis TB-617. The settings on record: TB617, P. mirabilis TB-617 (not marked as resistant), 10^6 CFU/ml, 37° C., 18 to 20 hours, read-out: Minimum Inhibitory Concentration (MIC).
Assay [3] deals with Proteus vulgaris TB-615. The assay is described as follows: MIC by agar dilution method, Proteus vulgaris TB-615. To be noted: TB615, P. vulgaris TB-615, tobramycin resistant strain, 10^6 CFU/ml, 37° C., 18 to 20 hours, read-out: Minimum Inhibitory Concentration (MIC).

For `NC[C@H]1O[C@H](O[C@H]2[C@H](O)[C@@H](O[C@H]3O[C@H](CO)[C@@H](O)[C@H](N)[C@H]3O)[C@H](N)C[C@@H]2N)[C@H](N)C[C@@H]1O` [TOB, tobramycin, reference compound], the MIC was 50 µg/mL (≈ 107 µM) in assay [1], 6.2 µg/mL (≈ 13.3 µM) in assay [2] and 50 µg/mL (≈ 107 µM) in assay [3].
Turning to `NC[C@H]1O[C@H](O[C@H]2[C@H](O)[C@@H](O[C@H]3O[C@H](CO)[C@@H](O)[C@H](N)[C@H]3O)[C@H](NC3=NCC[C@@H]3O)C[C@@H]2N)[C@H](N)C[C@@H]1O` [[A], 1N-[(S)(-)-3-hydroxy-1-pyrrolin-2-yl]tobramycin], the MIC worked out at 25 µg/mL (≈ 45.4 µM) in assay [1], 3.1 µg/mL (≈ 5.63 µM) in assay [2] and 25 µg/mL (≈ 45.4 µM) in assay [3].
As for `NC[C@H]1O[C@H](O[C@H]2[C@H](O)[C@@H](O[C@H]3O[C@H](CO)[C@@H](O)[C@H](N)[C@H]3O)[C@H](NC3=NCCC[C@@H]3O)C[C@@H]2N)[C@H](N)C[C@@H]1O` [[B], 1N-[(S)(-)-3-hydroxy-3,4,5,6-tetrahydropyridin-2-yl]tobramycin], the MIC in assay [1] was 25 µg/mL (≈ 44.3 µM); in assay [2], 3.1 µg/mL (≈ 5.49 µM); in assay [3], 25 µg/mL (≈ 44.3 µM).
